Reference: patent US20240190880A1 (THE REGENTS OF THE UNIVERSITY OF MICHIGAN, priority 2021, published 2024)

target: T1, ER (Homo sapiens, UniProt P03372); assay: ER degradation activity, in-cell western blot analysis in T47D cells; type: cell-based; conditions: 16 hours, Table A does not say which cell line (T47D or MCF7), read-out: Potency (DC50)
T1 construct: host or cells: T47D and MCF7 human breast cancer cells
T1 sequence (P03372 1-595): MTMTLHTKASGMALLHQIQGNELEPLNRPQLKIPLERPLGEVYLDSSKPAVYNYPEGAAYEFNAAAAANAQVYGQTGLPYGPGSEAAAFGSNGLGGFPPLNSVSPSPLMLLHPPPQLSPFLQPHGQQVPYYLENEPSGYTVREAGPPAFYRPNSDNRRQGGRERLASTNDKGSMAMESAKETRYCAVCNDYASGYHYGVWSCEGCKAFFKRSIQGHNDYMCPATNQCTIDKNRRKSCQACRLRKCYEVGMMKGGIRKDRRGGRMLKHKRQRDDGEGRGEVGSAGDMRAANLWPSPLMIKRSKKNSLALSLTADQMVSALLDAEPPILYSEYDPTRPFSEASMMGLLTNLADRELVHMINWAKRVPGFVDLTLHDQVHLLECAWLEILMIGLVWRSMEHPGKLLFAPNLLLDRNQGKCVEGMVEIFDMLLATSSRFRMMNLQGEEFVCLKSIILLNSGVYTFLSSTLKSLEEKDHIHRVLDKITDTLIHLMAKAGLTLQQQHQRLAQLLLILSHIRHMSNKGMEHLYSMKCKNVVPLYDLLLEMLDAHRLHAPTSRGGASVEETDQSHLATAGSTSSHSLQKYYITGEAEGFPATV
Experimental: ER degradation activity was evaluated in the human breast cancer cell line T47D and MCF7 purchased from the American Type Culture Collection (ATCC), Manassas, VA, and maintained and cultured in Dulbecco's Modified Eagle's medium (DMEM) containing 10% fetal bovine serum, 1 unit/ml of penicillin and 1 μg/ml of streptomycin.
The protocol for the in-cell western blot analysis: a. seed cells in black-sided/clear bottom 96- or 384-well plates at 40,000 or 10,000 cells/well, overnight; b. add diluted compounds (final 0.5% DMSO), 16 hours. […] RT 2 h, gentle shaking. Negative control: cells plus secondary antibodies (no primary antibodies); e. wash ×4 with PBS+0.05-0.1% Tween 20, gentel shaking; f. anti-rabbit-680 and anti-mouse-800 (both 1:1000 in LiCor block+0.05% Tween20, RT 1 h, gentle shaking, no light. LI-COR: 0.2% to reduce background; g. wash×4 with PBS+0.05% Tween 20, gental shaking; h. add 100 μL or 25 μL of PBS to each well and read on CLX plate reader. The relative ER percentage in treated cells were obtained by comparing the values of treated wells to those in untreated and DMSO-treated wells as 100%.

`O=C1CCC(N2C(=O)c3cc4c(cc3C2=O)CN(CC(=O)N2CCCC(Oc3ccc([C@@H]5c6ccc(O)cc6CC[C@@H]5c5ccccc5)cc3)C2)C4)C(=O)N1` (mixture of isomers) [E 21, Rac-2-(2,6-dioxopiperidin-3-yl)-6-(2-(3-(4-((1R,2S)-6-hydroxy-2-phenyl-1,2,3,4-tetrahydronaphthalen-1-yl)phenoxy)piperidin-1-yl)-2-oxoethyl)-6,7-dihydropyrrolo[3,4-f]isoindole-1,3(2H,5H)-dione] and `O=C1CCC(N2C(=O)c3cc4c(cc3C2=O)CN(C2CC(C(=O)N3CCCC(Oc5ccc([C@@H]6c7ccc(O)cc7CC[C@@H]6c6ccccc6)cc5)C3)C2)C4)C(=O)N1` (mixture of isomers) [E 22, Rac-2-(2,6-dioxopiperidin-3-yl)-6-(3-(3-(4-((1R,2S)-6-hydroxy-2-phenyl-1,2,3,4-tetrahydronaphthalen-1-yl)phenoxy)piperidine-1-carbonyl)cyclobutyl)-6,7-dihydropyrrolo[3,4-f]isoindole-1,3(2H,5H)-dione] cannot be ordered by DC50: over 100 nM for the first, over 100 nM for the second.

`O=C1CCC(N2C(=O)c3cc4c(cc3C2=O)CN(C2CCC(C(=O)N3CCCC(Oc5ccc([C@@H]6c7ccc(O)cc7CC[C@@H]6c6ccccc6)cc5)C3)CC2)C4)C(=O)N1` (mixture of isomers) [E 23, Rac-2-(2,6-dioxopiperidin-3-yl)-6-(4-(3-(4-((1R,2S)-6-hydroxy-2-phenyl-1,2,3,4-tetrahydronaphthalen-1-yl)phenoxy)piperidine-1-carbonyl)cyclohexyl)-6,7-dihydropyrrolo[3,4-f]isoindole-1,3(2H,5H)-dione] and `O=C1CCC(N2C(=O)c3cc4c(cc3C2=O)CN(C(=O)c2ccc(CC(=O)N3CCCC(Oc5ccc([C@@H]6c7ccc(O)cc7CC[C@@H]6c6ccccc6)cc5)C3)cc2)C4)C(=O)N1` (mixture of isomers) [E 24, Rac-2-(2,6-dioxopiperidin-3-yl)-6-(4-(2-(3-(4-((1R,2S)-6-hydroxy-2-phenyl-1,2,3,4-tetrahydronaphthalen-1-yl)phenoxy)piperidin-1-yl)-2-oxoethyl)benzoyl)-6,7-dihydropyrrolo[3,4-f]isoindole-1,3(2H,5H)-dione] fall in the same range of DC50: 10 to 100 nM for the first, 10 to 100 nM for the second.

`O=C1CCC(N2C(=O)c3cc4c(cc3C2=O)CN(C(=O)CN2CC3(CCN(c5ccc([C@@H]6c7ccc(O)cc7CC[C@@H]6c6ccccc6)cc5)CC3)C2)C4)C(=O)N1` (mixture of isomers) [E 125, Rac-2-(2,6-dioxopiperidin-3-yl)-6-(2-(7-(4-((1R,2S)-6-hydroxy-2-phenyl-1,2,3,4-tetrahydronaphthalen-1-yl)phenyl)-2,7-diazaspiro[3.5]nonan-2-yl)acetyl)-6,7-dihydropyrrolo[3,4-f]isoindole-1,3(2H,5H)-dione] and `O=C1CCC(N2C(=O)c3cc4c(cc3C2=O)CN(C(=O)CN2CCC3(CC2)CCN(c2ccc([C@@H]5c6ccc(O)cc6CC[C@@H]5c5ccccc5)cc2)CC3)C4)C(=O)N1` (mixture of isomers) [E 126, Rac-2-(2,6-dioxopiperidin-3-yl)-6-(2-(9-(4-((1R,2S)-6-hydroxy-2-phenyl-1,2,3,4-tetrahydronaphthalen-1-yl)phenyl)-3,9-diazaspiro[5.5]undecan-3-yl)acetyl)-6,7-dihydropyrrolo[3,4-f]isoindole-1,3(2H,5H)-dione] fall in the same range of DC50: 10 to 100 nM for the first, 10 to 100 nM for the second.

In the case of `O=C1CCC(N2C(=O)c3cc4c(cc3C2=O)CN(C(=O)CN2CC3(CCN(c5ccc([C@@H]6c7ccc(O)cc7CC[C@@H]6c6ccc(F)cc6)cc5)CC3)C2)C4)C(=O)N1` (mixture of isomers) [E 127, 2-(2,6-dioxopiperidin-3-yl)-6-(2-(7-(4-((1R,2S)-2-(4-fluorophenyl)-6-hydroxy-1,2,3,4-tetrahydronaphthalen-1-yl)phenyl)-2,7-diazaspiro[3.5]nonan-2-yl)acetyl)-6,7-dihydropyrrolo[3,4-f]isoindole-1,3(2H,5H)-dione], the DC50 is reported as 10 to 100 nM.
